Target: HECTD1 (Homo sapiens, UniProt Q9ULT8)
Assay: in-cell competitive QTRP
Type: biochemical
Details: covalent; C1368; […], […] h in HEK293T cells

HECTD1, sequence (Q9ULT8 whole entry): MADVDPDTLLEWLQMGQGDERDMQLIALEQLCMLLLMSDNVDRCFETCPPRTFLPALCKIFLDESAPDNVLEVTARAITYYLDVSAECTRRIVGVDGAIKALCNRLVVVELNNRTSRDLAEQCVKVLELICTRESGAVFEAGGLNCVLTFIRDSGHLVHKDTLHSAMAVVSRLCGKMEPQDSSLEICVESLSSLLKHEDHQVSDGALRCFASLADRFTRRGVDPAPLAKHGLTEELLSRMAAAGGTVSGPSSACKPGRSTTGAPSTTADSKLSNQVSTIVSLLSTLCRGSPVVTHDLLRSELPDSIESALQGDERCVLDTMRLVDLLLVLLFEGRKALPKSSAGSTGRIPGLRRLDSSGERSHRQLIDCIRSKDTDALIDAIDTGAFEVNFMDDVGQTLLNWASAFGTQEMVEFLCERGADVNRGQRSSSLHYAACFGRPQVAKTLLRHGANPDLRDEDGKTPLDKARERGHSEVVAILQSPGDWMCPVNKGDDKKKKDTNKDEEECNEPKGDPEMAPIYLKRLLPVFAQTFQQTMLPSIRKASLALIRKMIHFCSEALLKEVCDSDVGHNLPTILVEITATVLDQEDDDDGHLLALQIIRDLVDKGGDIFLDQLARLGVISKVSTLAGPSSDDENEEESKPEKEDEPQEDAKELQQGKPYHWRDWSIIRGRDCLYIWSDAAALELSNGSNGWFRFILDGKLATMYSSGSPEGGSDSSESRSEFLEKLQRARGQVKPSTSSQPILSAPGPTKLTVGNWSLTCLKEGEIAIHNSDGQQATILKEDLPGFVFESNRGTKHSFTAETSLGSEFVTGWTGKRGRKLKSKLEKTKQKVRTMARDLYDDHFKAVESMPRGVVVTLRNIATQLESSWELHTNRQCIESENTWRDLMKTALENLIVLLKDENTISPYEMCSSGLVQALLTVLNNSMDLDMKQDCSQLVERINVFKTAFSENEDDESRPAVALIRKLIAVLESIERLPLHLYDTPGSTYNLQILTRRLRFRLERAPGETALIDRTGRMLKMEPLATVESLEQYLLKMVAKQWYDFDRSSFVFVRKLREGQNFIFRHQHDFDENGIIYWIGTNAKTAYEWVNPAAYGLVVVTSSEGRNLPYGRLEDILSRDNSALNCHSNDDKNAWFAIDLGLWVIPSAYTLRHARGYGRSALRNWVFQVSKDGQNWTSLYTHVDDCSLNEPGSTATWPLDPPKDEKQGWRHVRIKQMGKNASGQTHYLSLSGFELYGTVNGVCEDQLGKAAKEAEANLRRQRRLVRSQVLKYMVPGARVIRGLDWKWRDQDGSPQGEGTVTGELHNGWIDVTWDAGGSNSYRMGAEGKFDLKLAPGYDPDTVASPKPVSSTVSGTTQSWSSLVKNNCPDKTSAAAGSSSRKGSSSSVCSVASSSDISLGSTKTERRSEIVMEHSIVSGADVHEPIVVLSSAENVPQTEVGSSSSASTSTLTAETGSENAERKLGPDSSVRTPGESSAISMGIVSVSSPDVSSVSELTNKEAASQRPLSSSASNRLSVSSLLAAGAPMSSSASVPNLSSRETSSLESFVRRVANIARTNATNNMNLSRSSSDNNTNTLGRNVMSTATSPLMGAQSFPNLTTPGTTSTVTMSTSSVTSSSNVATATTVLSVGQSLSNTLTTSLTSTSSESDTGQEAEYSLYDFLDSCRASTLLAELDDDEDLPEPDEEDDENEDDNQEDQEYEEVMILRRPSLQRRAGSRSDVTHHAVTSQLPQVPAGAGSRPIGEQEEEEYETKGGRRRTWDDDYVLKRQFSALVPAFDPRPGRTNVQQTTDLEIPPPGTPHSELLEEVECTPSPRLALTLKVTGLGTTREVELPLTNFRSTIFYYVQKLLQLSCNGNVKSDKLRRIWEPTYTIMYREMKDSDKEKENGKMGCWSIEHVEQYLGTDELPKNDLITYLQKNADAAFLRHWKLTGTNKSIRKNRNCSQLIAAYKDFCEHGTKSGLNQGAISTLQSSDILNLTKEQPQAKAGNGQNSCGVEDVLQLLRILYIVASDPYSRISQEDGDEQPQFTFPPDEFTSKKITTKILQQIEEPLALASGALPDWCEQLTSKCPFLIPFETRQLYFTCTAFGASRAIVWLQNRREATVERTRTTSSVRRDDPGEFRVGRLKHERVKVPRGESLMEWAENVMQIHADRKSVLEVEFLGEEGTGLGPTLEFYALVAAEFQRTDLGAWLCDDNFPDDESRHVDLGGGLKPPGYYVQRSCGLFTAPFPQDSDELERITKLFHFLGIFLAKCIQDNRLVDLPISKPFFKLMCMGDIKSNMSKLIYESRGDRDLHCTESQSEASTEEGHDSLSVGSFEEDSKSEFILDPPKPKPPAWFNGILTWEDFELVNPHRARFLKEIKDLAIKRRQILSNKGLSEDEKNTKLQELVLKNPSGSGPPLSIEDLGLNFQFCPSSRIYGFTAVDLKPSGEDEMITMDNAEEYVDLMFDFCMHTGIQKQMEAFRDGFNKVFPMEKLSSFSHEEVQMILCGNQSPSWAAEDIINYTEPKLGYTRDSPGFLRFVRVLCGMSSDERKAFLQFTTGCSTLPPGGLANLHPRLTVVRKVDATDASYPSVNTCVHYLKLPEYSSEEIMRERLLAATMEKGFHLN

SMILES: C=C(CC)C(=O)c1ccc(OCC(=O)O)c(Cl)c1Cl [etacrynic acid]
- RH/L: the etacrynic acid-engaged C1368 of HECTD1 is spatially distant from the active site
